Active and inactive are the calls of the source. The rule behind the calls is not given here.
Legend:
T-24 [1] = test: Induction of mitochondrial mediated apoptosis in human T24 cells assessed as upregulation of cytochrome c expression at 10 to 15 uM incubated for 24 hrs by Western blotting analysis; assay type: functional, cell-based; conditions: dose 10-15 µM
T-24 [2] = test: Induction of apoptosis in human T24 cells assessed as condensation of nuclei at 10 uM by Hoechst33258 staining based fluorescence microscopy; assay type: functional, cell-based
T-24 [3] = test: Induction of apoptosis in human T24 cells assessed as condensed chromatin at 10 uM by Hoechst33258 staining based fluorescence microscopy; assay type: functional, cell-based
T-24 [4] = test: Induction of mitochondrial membrane potential dysfunction in human T24 cells assessed as decrease in ATP production at 15 uM; assay type: functional; set-up: scale not given: the % may be the effect or the level left
T-24 [5] = test: Induction of apoptosis in human T24 cells assessed as early apoptotic cells at 10 uM incubated for 24 hrs by Annexin-V/PI staining based flow cytometry analysis (reference value: 3.27 %); assay type: functional
T-24 [6] = test: Induction of mitochondrial membrane potential dysfunction in human T24 cells assessed as depolarised cells at 15 uM incubated for 24 hrs by JC-1 staining based flow cytometry (reference value: 6.20%); assay type: functional
T-24 [7] = test: Induction of cell cycle arrest in human T24 cells assessed as accumulation of cells at G1 phase at 10 uM incubated for 24 hrs by propidium iodide/RNase A staining based flow cytometry analysis (reference value: 51.71 %); assay type: functional
T-24 [8] = test: Induction of mitochondrial ROS generation in human T24 cells at 10 uM measured after 24 hrs by Mitotracker Red dye based confocal microscopy method; assay type: functional, cell-based
T-24 [9] = test: Induction of Ca2+ production in human T24 cells assessed as increase in intracellular Ca2+ concentration at 10 uM by Fluo3-AM staining based fluorescence microscopic method; assay type: functional, cell-based
T-24 [10] = test: Induction of mitochondrial membrane potential dysfunction in human T24 cells assessed as nuclear condensation at 10 to 15 uM by mito-tracker green dye based fluorescence microscopy; assay type: functional, cell-based; conditions: dose 10-15 µM
T-24 [11] = test: Induction of apoptosis in human T24 cells assessed as late apoptotic cells at 10 uM incubated for 24 hrs by Annexin-V/PI staining based flow cytometry analysis (reference value: 0.543 %); assay type: functional
T-24 [12] = test: Induction of mitochondrial membrane potential dysfunction in human T24 cells assessed as shrinking mitochondria at 10 uM incubated for 24 hrs by TEM analysis; assay type: functional, cell-based
T-24 [13] = test: Induction of cell cycle arrest in human T24 cells assessed as accumulation of cells at S phase at 4 uM incubated for 24 hrs by propidium iodide/RNase A staining based flow cytometry analysis (reference value: 42.47 %); assay type: functional
T-24 [14] = test: Induction of cell cycle arrest in human T24 cells assessed as accumulation of cells at G2/M phase at 2 uM incubated for 24 hrs by propidium iodide/RNase A staining based flow cytometry analysis (reference value: 5.82 %); assay type: functional
T-24 [15] = test: Induction of mitochondrial mediated apoptosis in human T24 cells assessed as upregulation of apaf-1 expression at 2 to 4 uM incubated for 24 hrs by Western blotting analysis; assay type: functional, cell-based; conditions: dose 2-4 µM
T-24 [16] = test: Induction of mitochondrial Ca2+ production in human T24 cells assessed as increase in intracellular Ca2+ concentration at 2 uM by Rhod2-AM staining based fluorescence microscopic method; assay type: functional, cell-based
T-24 [17] = test: Induction of apoptosis in human T24 cells assessed as increase in caspase 3 activity at 4 uM (Rvb= 3.1%); assay type: functional
T-24 [18] = test: Induction of cell cycle arrest in human T24 cells assessed as upregulation of Cyclin E expression at 2 to 4 uM incubated for 24 hrs by chemiluminescence based Western blotting analysis; assay type: functional; conditions: dose 2-4 µM
T-24 [19] = test: Induction of apoptosis in human T24 cells assessed as condensation of nuclei at 2 uM by Hoechst33258 staining based fluorescence microscopy; assay type: functional, cell-based
T-24 [20] = test: Induction of DNA damage in human T24 cells assessed as increase in […] p53 expression at 2 to 4 uM incubated for 24 hrs by Western blot analysis; assay type: functional, cell-based; conditions: dose 2-4 µM
T-24 [21] = test: Induction of apoptosis in human T24 cells assessed as necrotic cells at 4 uM incubated for 24 hrs by Annexin-V/PI staining based flow cytometry analysis (reference value: 1.92 %); assay type: functional
T-24 [22] = test: Induction of DNA damage in human T24 cells assessed as DNA strand breakage by measuring comet formation at 2 uM incubated for 24 hrs by comet assay; assay type: functional, cell-based
T-24 [23] = test: Induction of mitochondrial mediated apoptosis in human T24 cells assessed as upregulation of cytochrome c expression at 2 to 4 uM incubated for 24 hrs by Western blotting analysis; assay type: functional, cell-based; conditions: dose 2-4 µM
T-24 [24] = test: Inhibition of colony formation in human T24 cells at 0.16 uM incubated for 24 hrs and measured for 10 days; assay type: functional, cell-based
T-24 [25] = test: Induction of apoptosis in human T24 cells assessed as increase in caspase 3 activity at 2 uM (Rvb= 3.1%); assay type: functional
T-24 [26] = test: Induction of mitochondrial mediated apoptosis in human T24 cells assessed as upregulation of cytochrome c expression at 0.5 to 1 uM incubated for 24 hrs by Western blotting analysis; assay type: functional, cell-based; conditions: dose 0.5-1 µM
T-24 [27] = test: Induction of Ca2+ production in human T24 cells assessed as increase in intracellular Ca2+ concentration at 0.5 uM by Fluo3-AM staining based fluorescence microscopic method; assay type: functional, cell-based
T-24 [28] = test: Induction of apoptosis in human T24 cells assessed as viable cells at 1 uM incubated for 24 hrs by Annexin-V/PI staining based flow cytometry analysis (reference value: 94.3 %); assay type: functional; conditions: read-out: Activity
T-24 [29] = test: Induction of DNA damage in human T24 cells assessed as increase in gamma H2AX phosphorylation at 0.5 uM incubated for 24 hrs by Hoechst33258 staining based immunofluorescence assay; assay type: functional, cell-based
T-24 [30] = test: Induction of apoptosis in human T24 cells assessed as condensed chromatin at 0.5 uM by Hoechst33258 staining based fluorescence microscopy; assay type: functional, cell-based
T-24 [31] = test: Induction of apoptosis in human T24 cells assessed as increase in caspase 3 activity at 0.5 uM (Rvb= 3.1%); assay type: functional
T-24 [32] = test: Induction of ROS accumulation in human T24 cells assessed as increase in intracellular ROS level at 0.5 uM by […] based flow cytometry; assay type: functional, cell-based
T-24 [33] = test: Induction of DNA damage in human T24 cells assessed as increase in gamma H2AX expression at 0.5 to 1 uM incubated for 24 hrs by Western blot analysis; assay type: functional, cell-based; conditions: dose 0.5-1 µM
T-24 [34] = test: Induction of mitochondrial membrane potential dysfunction in human T24 cells assessed as mitochondrial fragment condensation at 0.5 to 1 uM by mito-tracker green dye based fluorescence microscopy; assay type: functional, cell-based; conditions: dose 0.5-1 µM
[35] = Toxicity in human WI-38 cells assessed as wound closure at 0.25 uM measured after 24 hrs by fluorescence microscopy based wound healing assay; assay type: cell-based; conditions: wi-38, 24 h
T-24 [36] = test: Induction of mitochondrial membrane potential dysfunction in human T24 cells assessed as depolarised cells at 0.5 uM incubated for 24 hrs by JC-1 staining based flow cytometry (reference value: 6.20%); assay type: functional
T-24 [37] = test: Induction of mitochondrial mediated apoptosis in human T24 cells assessed as increase in Bak protein expression at 0.5 to 1 uM incubated for 24 hrs by Western blotting analysis; assay type: functional, cell-based; conditions: dose 0.5-1 µM

SMILES: O=C1c2ccccc2-c2cccc3ccnc1c23
- Activity (T-24 [1]): Active
- Activity (T-24 [2]): Active
- Activity (T-24 [3]): Active
- Activity (T-24 [4]): 66.2%
- Activity (T-24 [5]): 14.4%
- Activity (T-24 [6]): 25.6%
- Activity (T-24 [7]): 31.45%
- Activity (T-24 [8]): Active
- Activity (T-24 [9]): Active
- Activity (T-24 [10]): Active
- Activity (T-24 [11]): 3.25%
- Activity (T-24 [12]): Active

SMILES: O=C1c2cc([N+](=O)[O-])ccc2-c2ccc([N+](=O)[O-])c3ccnc1c23
- Activity (T-24 [13]): 70.53%
- Activity (T-24 [14]): 33.02%
- Activity (T-24 [15]): Active
- Activity (T-24 [16]): Active
- Activity (T-24 [17]): 28%
- Activity (T-24 [18]): Active
- Activity (T-24 [19]): Active
- Activity (T-24 [20]): Active
- Activity (T-24 [21]): 2.8%
- Activity (T-24 [22]): Active
- Activity (T-24 [23]): Active
- inhibition (T-24 [24]): Active
- Activity (T-24 [25]): 24.6%

SMILES: O=C1c2ccccc2-c2ccc([N+](=O)[O-])c3ccnc1c23
- Activity (T-24 [26]): Active
- Activity (T-24 [27]): Active
- viability at 1 µM (T-24 [28]): 52.6%
- Activity (T-24 [29]): Active
- Activity (T-24 [30]): Active
- Activity (T-24 [31]): 30.6%
- Activity (T-24 [32]): Active
- Activity (T-24 [33]): Active
- Activity (T-24 [34]): Active
- Activity [35]: Non-Toxic
- Activity (T-24 [36]): 37%
- Activity (T-24 [37]): Active
